In patent US20250034110A1, “LPAR1 ANTAGONISTS AND USES THEREOF” (Pipeline Therapeutics, Inc., priority 2021, published 2025):
Where two headings read alike, the source gives them in different places.

Target: human LPAR1 (Homo sapiens, UniProt Q92633)
Assay: In vitro functional assay of lysophosphatidic acid receptor 1 activity (calcium flux)
Format: cell-based
[1] = B103 cells stably expressing human LPAR1, calcium flux (Fluo-4 NW) after lysophosphatidic acid (18:1) at EC80, 100 pM to 10 μM, read-out: LPAR1 IC50

Chain of human LPAR1 (Q92633 whole entry): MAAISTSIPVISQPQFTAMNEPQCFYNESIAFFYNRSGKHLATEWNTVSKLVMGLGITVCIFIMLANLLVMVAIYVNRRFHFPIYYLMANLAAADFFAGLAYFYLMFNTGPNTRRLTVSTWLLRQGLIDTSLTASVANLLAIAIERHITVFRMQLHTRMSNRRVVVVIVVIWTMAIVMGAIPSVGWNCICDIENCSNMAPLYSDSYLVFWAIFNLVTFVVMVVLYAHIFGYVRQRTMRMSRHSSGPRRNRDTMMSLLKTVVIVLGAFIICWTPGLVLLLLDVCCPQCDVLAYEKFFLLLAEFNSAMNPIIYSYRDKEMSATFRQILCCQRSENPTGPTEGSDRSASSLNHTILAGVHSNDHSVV

Compound	IC50 (LPAR1 IC50) [nM]	IC50 [1] [nM]
COc1ccc(NC(=O)N(c2ccccc2C(C)C)[C@@H]2C[C@H]3CC[C@@H](C2)N3C(C)=O)c(OC(F)F)n1 [Example 55, 1-((1R,3r,5S)-8-acetyl-8-azabicyclo[3.2.1]octan-3-yl)-3-(2-(difluoromethoxy)-6-methoxypyridin-3-yl)-1-(2-isopropylphenyl)urea]	100 to 1000	–
CC(=O)N1CCC(N(C(=O)Nc2ccc(C(F)(F)F)nc2C)c2ccccc2C(C)C)CC1 [Example 88]	> 1000	–
Cc1ccc(NC(=O)N(c2ccccc2C(C)C)[C@H]2CC[C@@H](C(F)F)CC2)c(OC(F)F)n1 [Example 245, 3-(2-(difluoromethoxy)-6-methylpyridin-3-yl)-1-((1s,4s)-4-(difluoromethyl)cyclohexyl)-1-(2-isopropylphenyl)urea]	–	> 1000
COc1ccc(NC(=O)N(c2ccccc2C(C)C)[C@H]2CC[C@H](C(=O)O)CC2)c(OCc2ccccc2)n1 [Example 253, (1r,4r)-4-(3-(2-(benzyloxy)-6-methoxypyridin-3-yl)-1-(2-isopropylphenyl)ureido)cyclohexane-1-carboxylic acid]	–	10 to 100
Cc1ccc(NC(=O)N(c2ccccc2C(C)C)[C@H]2CC[C@H](C(=O)O)CC2)c(OCC(F)F)n1 [Example 335, (1r,4r)-4-(3-(2-(2,2-difluoroethoxy)-6-methylpyridin-3-yl)-1-(2-isopropylphenyl)ureido)cyclohexane-1-carboxylic acid]	–	10 to 100
Cc1nc(OC(F)F)c(NC(=O)N(c2ccccc2C(C)C)[C@H]2CC[C@H](C(=O)O)CC2)cc1F [Example 221, (1r,4r)-4-(3-(2-(difluoromethoxy)-5-fluoro-6-methylpyridin-3-yl)-1-(2-isopropylphenyl)ureido)cyclohexane-1-carboxylic acid]	–	< 10
Cc1ccc(NC(=O)N(C[C@@H]2CCN2C(=O)OC(C)(C)C)c2ccccc2C(C)C)c(OC(F)F)n1 [Example 12, tert-butyl (S)-2-((3-(2-(difluoromethoxy)-6-methylpyridin-3-yl)-1-(2-isopropylphenyl)ureido)methyl)azetidine-1-carboxylate]	–	> 1000
COc1ccc(NC(=O)N(c2ccccc2C(C)C)[C@@H]2C[C@H]3CC[C@@H](C2)N3C(C)=O)c(OC(F)F)n1 [Example 54, 1-((1R,3s,5S)-8-acetyl-8-azabicyclo[3.2.1]octan-3-yl)-3-(2-(difluoromethoxy)-6-methoxypyridin-3-yl)-1-(2-isopropylphenyl)urea]	10 to 100	–
Cc1ccc(NC(=O)N(c2ccccc2C(C)C)[C@H]2CC[C@@H](C=O)CC2)c(OC(F)F)n1 [Example 244]	–	> 1000
Cc1ccc(NC(=O)N(CC2CC(C(=O)O)C2)c2ccccc2C(C)C)c(OC(F)F)n1 (stereo not drawn) [Example 170]	–	< 10
Cc1ccc(NC(=O)N(c2ccccc2C(C)C)C2CCC(=O)N(C)C2)c(OC(F)F)n1 (stereo not drawn) [Example 4, 3-(2-(difluoromethoxy)-6-methylpyridin-3-yl)-1-(2-isopropylphenyl)-1-(1-methyl-6-oxopiperidin-3-yl)urea]	–	10 to 100
COc1nc(C(F)F)ccc1NC(=O)N(c1ccccc1C(C)C)C1CCN(C(C)=O)CC1 [Example 113]	10 to 100	–
COc1ccc(NC(=O)N(c2ccccc2C(C)C)[C@H]2C[C@@](O)(C(F)(F)C(=O)O)C2)c(OC(F)F)n1 [Example 323]	–	< 10
COc1cc(Cl)c(F)cc1NC(=O)N(c1ccccc1C(C)C)[C@H]1C[C@@H](CC(=O)O)C1 [Example 330]	–	< 10
Cc1ccc(NC(=O)N(c2ccccc2C(C)C)[C@H]2CC[C@H](C#N)CC2)c(OC(F)F)n1 [Example 241, 1-((1r,4r)-4-cyanocyclohexyl)-3-(2-(difluoromethoxy)-6-methylpyridin-3-yl)-1-(2-isopropylphenyl)urea]	–	100 to 1000
Cc1ccc(NC(=O)N(c2ccccc2C(C)C)[C@H]2C[C@@H](OCc3ccccc3)C2)c(OC(F)F)n1 [Example 24, 1-((1s,3s)-3-(benzyloxy)cyclobutyl)-3-(2-(difluoromethoxy)-6-methylpyridin-3-yl)-1-(2-isopropylphenyl)urea]	–	> 1000
Cc1ccc(NC(=O)N(CC23CC(C(=O)O)(C2)C3)c2ccccc2C(C)C)c(OC(F)F)n1 [Example 173]	–	10 to 100
COc1ccc(NC(=O)N(c2ccccc2C(C)C)[C@@H]2C[C@H]3C[C@@H]2CN3C(C)=O)c(OC(F)F)n1 [Example 58, 1-((1R,4R,5R)-2-acetyl-2-azabicyclo[2.2.1]heptan-5-yl)-3-(2-(difluoromethoxy)-6-methoxypyridin-3-yl)-1-(2-isopropylphenyl)urea]	> 1000	–
Cc1ccc(NC(=O)N(c2ccccc2C(C)C)[C@H]2CC[C@H](CC(=O)O)CC2)c(OC(F)F)n1 [Example 165, 2-((1r,4r)-4-(3-(2-(difluoromethoxy)-6-methylpyridin-3-yl)-1-(2-isopropylphenyl)ureido)cyclohexyl)acetic acid]	–	< 10
COc1ccc(NC(=O)N(c2ccccc2C(C)C)[C@@H]2CCN(C(C)=O)C[C@H]2F)c(OC(F)F)n1 (racemic) [Example 46, rac-1-((3R,4R)-1-acetyl-3-fluoropiperidin-4-yl)-3-(2-(difluoromethoxy)-6-methoxypyridin-3-yl)-1-(2-isopropylphenyl)urea]	10 to 100	–

Compound	IC50 (LPAR1 IC50) [nM]	IC50 [1] [nM]
[2H]C([2H])([2H])Oc1cc(C(F)F)ncc1NC(=O)N(c1ccccc1C(C)C)[C@H]1CC[C@H](C(=O)O)CC1 [Example 296, (1r,4r)-4-(3-(6-(difluoromethyl)-4-(methoxy-d3)pyridin-3-yl)-1-(2-isopropylphenyl)ureido)cyclohexane-1-carboxylic acid]	–	100 to 1000
COc1cc(C(F)F)ncc1NC(=O)N(c1ccccc1C(C)C)[C@H]1C[C@@H](CC(=O)O)C1 [Example 307]	–	100 to 1000
Cc1ccc(NC(=O)N(c2ccccc2C(C)C)[C@H]2C[C@@H](CC(N)=O)C2)c(OC(F)F)n1 [Example 189]	–	100 to 1000
CC(=O)N1CCC(N(C(=O)Nc2cccnc2OC(F)F)c2ccccc2C(C)C)CC1 [Example 91]	10 to 100	–
CC(=O)N1CCC(N(C(=O)Nc2ncc(Br)cc2C=O)c2ccccc2C(C)C)CC1 [Example 140]	100 to 1000	–
Cc1ccc(NC(=O)N(c2ccccc2C(C)C)C2CC3(C2)CN(C(=O)NC2CC2)C3)c(OC(F)F)c1 [Example 126]	–	10 to 100
COC(=O)C1CC(N(C(=O)Nc2ncc(Br)cc2OC(F)F)c2ccccc2C(C)C)C1 (stereo not drawn) [Example 177]	–	10 to 100
CC(C)Oc1ccc(NC(=O)N(c2ccccc2C(C)C)[C@H]2CC[C@H](C(=O)O)CC2)c(OCC(F)F)n1 [Example 259, (1r,4r)-4-(3-(2-(2,2-difluoroethoxy)-6-isopropoxypyridin-3-yl)-1-(2-isopropylphenyl)ureido)cyclohexane-1-carboxylic acid]	–	10 to 100
CC(=O)N1CCC(N(C(=O)Nc2ncc(Br)nc2OC(F)F)c2ccccc2C(C)C)CC1 [Example 184, 1-(1-acetylpiperidin-4-yl)-3-(5-bromo-3-(difluoromethoxy)pyrazin-2-yl)-1-(2-isopropylphenyl)urea]	100 to 1000	–
CC(=O)N1CCC(N(C(=O)Nc2cnc(C(F)(F)F)cn2)c2ccccc2C(C)C)CC1 [Example 132]	> 1000	–
Cc1ccc(NC(=O)N(c2ccccc2C(C)C)[C@H]2CC[C@@H](C#N)CC2)c(OC(F)F)n1 [Example 240, 1-((1s,4s)-4-cyanocyclohexyl)-3-(2-(difluoromethoxy)-6-methylpyridin-3-yl)-1-(2-isopropylphenyl)urea]	–	100 to 1000
Cc1ccc(NC(=O)N(c2ccccc2C(C)C)C2CN(C(=O)CC#N)C2)c(OC(F)F)n1 [Example 81, 1-(1-(2-cyanoacetyl)azetidin-3-yl)-3-(2-(difluoromethoxy)-6-methylpyridin-3-yl)-1-(2-isopropylphenyl)urea]	–	10 to 100
Cc1ccc(NC(=O)N(c2ccccc2C(C)C)[C@H]2C[C@@H](C(N)=O)C2)c(OC(F)F)n1 [Example 187]	–	> 1000
COc1ccc(NC(=O)N(c2ccccc2C(C)C)[C@@H]2CCN(C(C)=O)C[C@@H]2F)c(OC(F)F)n1 [Example 49, 1-((3S,4R)-1-acetyl-3-fluoropiperidin-4-yl)-3-(2-(difluoromethoxy)-6-methoxypyridin-3-yl)-1-(2-isopropylphenyl)urea]	10 to 100	–
COc1ccc(NC(=O)N(c2ccccc2C(C)C)[C@@H]2[C@@H]3CC[C@H]2CN(C(C)=O)C3)c(OC(F)F)n1 [Example 56, 1-((1R,5S,8s)-3-acetyl-3-azabicyclo[3.2.1]octan-8-yl)-3-(2-(difluoromethoxy)-6-methoxypyridin-3-yl)-1-(2-isopropylphenyl)urea]	100 to 1000	–
Cc1ccc(NC(=O)N(c2ccccc2C(C)C)C2CC(NS(C)(=O)=O)C2)c(OC(F)F)n1 (stereo not drawn) [Example 272, N-(3-(3-(2-(difluoromethoxy)-6-methylpyridin-3-yl)-1-(2-isopropylphenyl)ureido)cyclobutyl)methanesulfonamide]	–	10 to 100
CC(=O)N(C(C)=O)[C@H]1CC[C@H](N(C(=O)Nc2ccc(C)nc2OC(F)F)c2ccccc2C(C)C)CC1 [Example 265, N-acetyl-N-((1r,4r)-4-(3-(2-(difluoromethoxy)-6-methylpyridin-3-yl)-1-(2-isopropylphenyl)ureido)-cyclohexyl)acetamide]	–	> 1000
Cc1ccc(NC(=O)N(c2ccccc2C(C)C)C2CC3(C2)CS(=O)(=O)C3)c(OC(F)F)n1 [Example 21, 3-(2-(difluoromethoxy)-6-methylpyridin-3-yl)-1-(2,2-dioxido-2-thiaspiro[3.3]heptan-6-yl)-1-(2-isopropylphenyl)urea]	–	100 to 1000
COc1ccc(NC(=O)N(c2ccccc2C(C)C)C2CCC(=O)CC2)c(OC(F)F)n1 [Example 276, 3-(2-(difluoromethoxy)-6-methoxypyridin-3-yl)-1-(2-isopropylphenyl)-1-(4-oxocyclohexyl)urea]	–	100 to 1000
